{"source": "patent US7691858B2", "about": "“Kinase inhibitors and methods of use thereof” (TargeGen, Inc., priority 2006, dated 2010)", "key": {"[1]": {"target": "T1, CDK7 (Homo sapiens, UniProt P50613)", "T1 construct": "purchased Upstate USA or Invitrogen (contract screening service)", "experiment": "Kinase panel screen", "type": "biochemical", "details": "Compound I and ATP 10 μM"}, "[2]": {"test_system": "dextran-induced inflammatory edema", "experiment": "Rat hindpaw inflammation model, dextran", "type": "in vivo, Sprague Dawley rats", "method": "FIG. 4. Inhibition of edema and inflammation. (a, b) Rats were injected i.v. with Evans blue dye and then intradermally with saline, VEGF or histamine. […] (c-f) Rat hindpaws were injected with either PAF (c & d) or dextran (e & f), and three hours later processed as H&E-stained paraffin sections. […] Images were taken of paws representing the mean group value for volume as presented in Results (original magnification 200×).\nThe Miles assay models a primarily endothelial-based response that develops rapidly (within minutes). As a comparator, we next employed a rodent hindpaw model where more complex inflammatory reactions develop over several hours. Agonists included PAF, a GPCR ligand that activates both EC and leukocytes, and dextran, a phagocytic stimulus for mast cell and leukocyte activation. […] Paw volume (a more quantitative measure of edema and inflammation) was reduced by 62% and 78% in response to PAF or dextran, respectively (n=8, P<0.001). Finally, to correlate these in vivo responses with the molecular target of interest, we monitored PI3K pathway signaling through Western blot analyses of Akt phosphorylation (a PI3K-mediated event).\nIn order to determine the influence of compounds on the development of inflammation, Sprague Dawley rats were first injected intravenously with either vehicle or test compound at 5 mg/kg, and then 30 min later either PBS (as a control), dextran or platelet activating factor (PAF) was injected into the plantar surface of the hindlimbs, dextran and PAF being known to induce localized inflammatory responses marked by edema. Three hours later, paw dimensions were measured using a caliper and paw volumes calculated; data are shown as the increase in paw volume (mm^3) as compared to controls (paws injected with PBS)."}, "[3]": {"target": "CHK1 (Homo sapiens, UniProt O14757)", "sequence (O14757 whole entry)": "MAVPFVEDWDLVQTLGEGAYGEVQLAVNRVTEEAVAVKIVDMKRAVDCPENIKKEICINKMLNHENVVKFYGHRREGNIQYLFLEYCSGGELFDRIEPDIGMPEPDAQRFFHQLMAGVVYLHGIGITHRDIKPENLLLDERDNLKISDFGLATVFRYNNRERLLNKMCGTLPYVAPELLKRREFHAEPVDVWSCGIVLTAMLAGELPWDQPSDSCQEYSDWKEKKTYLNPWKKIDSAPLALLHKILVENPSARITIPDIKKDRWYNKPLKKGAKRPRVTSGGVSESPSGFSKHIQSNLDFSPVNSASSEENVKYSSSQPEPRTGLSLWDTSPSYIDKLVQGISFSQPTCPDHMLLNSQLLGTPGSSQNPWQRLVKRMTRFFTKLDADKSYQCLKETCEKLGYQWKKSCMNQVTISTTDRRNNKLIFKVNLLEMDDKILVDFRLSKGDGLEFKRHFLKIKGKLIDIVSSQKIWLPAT", "experiment": "Kinase panel screen", "type": "biochemical", "details": "Compound I and ATP 10 μM"}, "[4]": {"target": "T2, KDR (Homo sapiens, UniProt P35968)", "T2 construct": "purchased Upstate USA or Invitrogen (contract screening service)", "experiment": "Kinase panel screen", "type": "biochemical", "details": "Compound I and ATP 10 μM"}, "[5]": {"test_system": "ERK phosphorylation", "experiment": "VEGF-stimulated ERK phosphorylation in EC (Western blot)", "type": "cell-based", "details": "10 uM Compound I, EC with VEGF", "method": "(§1) FIG. 3. Inhibition of cell proliferation and signaling. (a) EC were cultured in the presence of vehicle (DMSO) or PI3K inhibitors (all at 10 μM); cell proliferation was assessed either 24 (open bar), 48 (grey bar), or 72 h (black bar) later.\n(§2) Western blots: Cell cultures were rinsed twice with PBS and then lysed using RIPA buffer (100 mM Tris, 150 mM NaCl, 2 mM CaCl2, 1% deoxycholic acid, 1% Triton X-100, 0.1% SDS, pH 7.5) containing PMSF (2 mM), NaF (500 mM), aprotinin (10 μg/ml), leupeptin (10 μg/ml) and vanadate (1 mM). Tissue samples were placed in ice-cold RIPA buffer and processed to lysates using a FastPrep homogenizer (QBiogene, Carlsbad, Calif.). Lysates were centrifuged at 15,000×g followed by assay for total protein using the bicinchoninic acid method (Pierce Biotechnology, Rockford, Ill.), then loaded at equal protein concentration onto gels for SDS-PAGE electrophoresis and Western blotting. For phosphorylated VE-cadherin detection blots were probed with primary antibody (Santa Cruz Biotechnology, Santa Cruz, Calif.) followed by a chemiluminescent detection system (Pierce Biotechnology). The same techniques were used to detect both phosphorylated and total ERK and Akt, except that primary antibodies were supplied by Cell Signaling Technology (Beverly, Mass.) and BD Biosciences (San Jose, Calif.), respectively."}, "[6]": {"target": "T3, Aurora-A (Homo sapiens, UniProt O14965)", "T3 construct": "purchased Upstate USA or Invitrogen (contract screening service)", "T3 sequence (O14965 whole entry)": "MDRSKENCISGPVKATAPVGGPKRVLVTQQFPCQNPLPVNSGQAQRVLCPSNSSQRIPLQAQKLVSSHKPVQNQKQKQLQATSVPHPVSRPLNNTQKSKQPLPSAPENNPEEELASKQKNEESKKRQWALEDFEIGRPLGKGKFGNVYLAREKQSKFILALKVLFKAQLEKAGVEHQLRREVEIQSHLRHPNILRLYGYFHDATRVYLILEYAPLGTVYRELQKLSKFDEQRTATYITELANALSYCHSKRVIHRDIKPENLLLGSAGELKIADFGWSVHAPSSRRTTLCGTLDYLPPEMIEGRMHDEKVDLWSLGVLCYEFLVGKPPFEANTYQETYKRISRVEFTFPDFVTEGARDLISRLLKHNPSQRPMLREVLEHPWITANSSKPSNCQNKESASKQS", "experiment": "Kinase panel screen", "type": "biochemical", "details": "Compound I and ATP 10 μM"}, "[7]": {"target": "T4, CDK2 (Homo sapiens, UniProt P24941)", "T4 construct": "purchased Upstate USA or Invitrogen (commercial screening service)", "experiment": "Kinase panel screen", "type": "biochemical", "details": "Compound I and ATP 10 μM"}, "[8]": {"target": "T5, MAPK1 (Homo sapiens, UniProt P27361)", "T5 construct": "purchased Upstate USA or Invitrogen (commercial screening service)", "T5 sequence (P27361 2-379 limits assumed)": "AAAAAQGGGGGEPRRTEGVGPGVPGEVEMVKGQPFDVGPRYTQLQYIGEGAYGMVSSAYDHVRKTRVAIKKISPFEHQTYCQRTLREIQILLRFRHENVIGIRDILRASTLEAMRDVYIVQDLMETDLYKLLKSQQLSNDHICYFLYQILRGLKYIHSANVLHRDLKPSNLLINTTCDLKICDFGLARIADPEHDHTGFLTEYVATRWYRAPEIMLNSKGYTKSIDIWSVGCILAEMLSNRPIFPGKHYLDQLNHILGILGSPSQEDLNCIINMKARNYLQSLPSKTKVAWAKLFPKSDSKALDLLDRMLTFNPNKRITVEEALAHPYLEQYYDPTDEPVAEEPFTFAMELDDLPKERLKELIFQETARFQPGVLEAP", "experiment": "Kinase panel screen", "type": "biochemical", "details": "Compound I and ATP 10 μM"}, "[9]": {"target": "T6, CK18 (Homo sapiens, UniProt P48730)", "T6 construct": "purchased Upstate USA or Invitrogen (contract screening service)", "T6 sequence (P48730 whole entry)": "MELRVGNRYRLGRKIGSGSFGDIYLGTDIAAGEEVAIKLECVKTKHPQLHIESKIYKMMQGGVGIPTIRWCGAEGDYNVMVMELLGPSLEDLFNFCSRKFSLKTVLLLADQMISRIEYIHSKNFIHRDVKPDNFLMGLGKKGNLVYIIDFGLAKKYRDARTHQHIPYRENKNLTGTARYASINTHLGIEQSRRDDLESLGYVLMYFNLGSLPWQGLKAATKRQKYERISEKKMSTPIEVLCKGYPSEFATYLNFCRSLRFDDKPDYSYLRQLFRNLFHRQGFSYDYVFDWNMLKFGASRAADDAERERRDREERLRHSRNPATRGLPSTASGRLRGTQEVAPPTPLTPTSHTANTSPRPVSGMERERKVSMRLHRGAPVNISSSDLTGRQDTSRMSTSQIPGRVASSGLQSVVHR", "experiment": "Kinase panel screen", "type": "biochemical", "details": "Compound I and ATP 10 μM"}, "[10]": {"target": "T7, MST1 (Homo sapiens, UniProt Q13043)", "T7 construct": "purchased Upstate USA or Invitrogen (commercial screening service)", "T7 sequence (Q13043 whole entry)": "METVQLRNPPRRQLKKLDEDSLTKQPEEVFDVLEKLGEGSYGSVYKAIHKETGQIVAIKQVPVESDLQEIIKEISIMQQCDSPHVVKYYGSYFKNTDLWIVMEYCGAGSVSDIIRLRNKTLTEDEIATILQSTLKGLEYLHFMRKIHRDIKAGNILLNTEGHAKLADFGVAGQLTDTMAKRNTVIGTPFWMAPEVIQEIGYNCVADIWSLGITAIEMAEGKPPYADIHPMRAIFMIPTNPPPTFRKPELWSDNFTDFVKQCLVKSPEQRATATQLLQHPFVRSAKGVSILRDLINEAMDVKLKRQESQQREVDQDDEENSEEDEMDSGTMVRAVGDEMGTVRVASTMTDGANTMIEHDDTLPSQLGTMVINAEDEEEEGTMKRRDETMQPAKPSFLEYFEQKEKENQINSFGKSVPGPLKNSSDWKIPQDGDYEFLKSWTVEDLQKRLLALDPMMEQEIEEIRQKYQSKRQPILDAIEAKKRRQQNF", "experiment": "Kinase panel screen", "type": "biochemical", "details": "Compound I and ATP 10 μM"}, "[11]": {"target": "T8, PKBy (Homo sapiens, UniProt Q9Y243)", "T8 construct": "purchased Upstate USA or Invitrogen (contract screening service)", "experiment": "Kinase panel screen", "type": "biochemical", "details": "read-out: Percent Control, PKBy"}, "[12]": {"target": "T9, CDK3 (Homo sapiens, UniProt Q00526)", "T9 construct": "purchased Upstate USA or Invitrogen (commercial screening service)", "experiment": "Kinase panel screen", "type": "biochemical", "details": "Compound I and ATP 10 μM"}, "[13]": {"test_system": "VE-cadherin phosphorylation", "experiment": "VEGF-induced VE-cadherin phosphorylation in EC (Western blot)", "type": "cell-based", "details": "10 uM Compound I, EC with VEGF", "method": "as §1, §2"}, "[14]": {"target": "T10, FGFR3 (Homo sapiens, UniProt P22607)", "T10 construct": "purchased Upstate USA or Invitrogen (contract screening service)", "experiment": "Kinase panel screen", "type": "biochemical", "details": "Compound I and ATP 10 μM"}, "[15]": {"target": "T11, Axl (Homo sapiens, UniProt P30530)", "T11 construct": "purchased Upstate USA or Invitrogen (contract screening service)", "experiment": "Kinase panel screen", "type": "biochemical", "details": "Compound I and ATP 10 μM"}, "[16]": {"target": "T12, cRaf (Homo sapiens, UniProt P04049)", "T12 construct": "purchased Upstate USA or Invitrogen (commercial screening service)", "experiment": "Kinase panel screen", "type": "biochemical", "details": "Compound I at 1 μM and ATP at the apparent Km"}, "[17]": {"target": "T13, Ron (Homo sapiens, UniProt Q04912)", "T13 construct": "purchased Upstate USA or Invitrogen (commercial screening service)", "experiment": "Kinase panel screen", "type": "biochemical", "details": "Compound I and ATP 10 μM"}, "[18]": {"target": "T14, Hck (Homo sapiens, UniProt P08631)", "T14 construct": "purchased Upstate USA or Invitrogen (commercial screening service)", "experiment": "Kinase panel screen", "type": "biochemical", "details": "Compound I and ATP 10 μM"}, "[19]": {"target": "MKK4 (Mus musculus, UniProt P47809)", "experiment": "Kinase panel screen", "type": "biochemical", "details": "Compound I and ATP 10 μM"}, "[20]": {"target": "T15, EphB4 (Homo sapiens, UniProt P54760)", "T15 construct": "purchased Upstate USA or Invitrogen (commercial screening service)", "experiment": "Kinase panel screen", "type": "biochemical", "details": "Compound I and ATP 10 μM"}, "[21]": {"target": "T16, EphA4 (Homo sapiens, UniProt P54764)", "T16 construct": "purchased Upstate USA or Invitrogen (commercial screening service)", "T16 sequence (P54764 20-986)": "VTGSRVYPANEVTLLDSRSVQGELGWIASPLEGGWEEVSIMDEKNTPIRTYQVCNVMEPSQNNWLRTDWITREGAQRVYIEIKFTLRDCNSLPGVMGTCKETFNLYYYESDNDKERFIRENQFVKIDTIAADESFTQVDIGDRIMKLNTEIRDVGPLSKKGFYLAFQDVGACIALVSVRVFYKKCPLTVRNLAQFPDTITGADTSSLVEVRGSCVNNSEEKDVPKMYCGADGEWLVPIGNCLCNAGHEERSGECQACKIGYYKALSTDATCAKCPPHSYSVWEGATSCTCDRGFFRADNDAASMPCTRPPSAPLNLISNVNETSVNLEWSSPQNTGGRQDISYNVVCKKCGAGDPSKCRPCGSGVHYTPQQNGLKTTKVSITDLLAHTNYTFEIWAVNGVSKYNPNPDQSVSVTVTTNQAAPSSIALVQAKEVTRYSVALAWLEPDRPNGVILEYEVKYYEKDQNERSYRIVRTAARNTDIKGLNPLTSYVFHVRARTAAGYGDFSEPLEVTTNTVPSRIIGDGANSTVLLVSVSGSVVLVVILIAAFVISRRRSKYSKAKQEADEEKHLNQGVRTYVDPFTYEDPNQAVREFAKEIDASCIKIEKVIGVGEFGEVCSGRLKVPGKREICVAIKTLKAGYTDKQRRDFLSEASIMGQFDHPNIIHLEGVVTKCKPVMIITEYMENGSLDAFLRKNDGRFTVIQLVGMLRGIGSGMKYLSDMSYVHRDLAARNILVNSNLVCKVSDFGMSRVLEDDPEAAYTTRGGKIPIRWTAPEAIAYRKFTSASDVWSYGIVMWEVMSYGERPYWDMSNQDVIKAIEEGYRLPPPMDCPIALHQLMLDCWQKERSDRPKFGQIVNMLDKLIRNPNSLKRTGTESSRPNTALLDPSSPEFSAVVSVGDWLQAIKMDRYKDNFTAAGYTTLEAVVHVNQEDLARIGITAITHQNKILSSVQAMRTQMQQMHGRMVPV", "experiment": "Kinase panel screen", "type": "biochemical", "details": "Compound I and ATP 10 μM"}, "[22]": {"target": "T17, EphB2 (Homo sapiens, UniProt P29323)", "T17 construct": "purchased Upstate USA or Invitrogen (commercial screening service)", "T17 sequence (P29323 19-1055)": "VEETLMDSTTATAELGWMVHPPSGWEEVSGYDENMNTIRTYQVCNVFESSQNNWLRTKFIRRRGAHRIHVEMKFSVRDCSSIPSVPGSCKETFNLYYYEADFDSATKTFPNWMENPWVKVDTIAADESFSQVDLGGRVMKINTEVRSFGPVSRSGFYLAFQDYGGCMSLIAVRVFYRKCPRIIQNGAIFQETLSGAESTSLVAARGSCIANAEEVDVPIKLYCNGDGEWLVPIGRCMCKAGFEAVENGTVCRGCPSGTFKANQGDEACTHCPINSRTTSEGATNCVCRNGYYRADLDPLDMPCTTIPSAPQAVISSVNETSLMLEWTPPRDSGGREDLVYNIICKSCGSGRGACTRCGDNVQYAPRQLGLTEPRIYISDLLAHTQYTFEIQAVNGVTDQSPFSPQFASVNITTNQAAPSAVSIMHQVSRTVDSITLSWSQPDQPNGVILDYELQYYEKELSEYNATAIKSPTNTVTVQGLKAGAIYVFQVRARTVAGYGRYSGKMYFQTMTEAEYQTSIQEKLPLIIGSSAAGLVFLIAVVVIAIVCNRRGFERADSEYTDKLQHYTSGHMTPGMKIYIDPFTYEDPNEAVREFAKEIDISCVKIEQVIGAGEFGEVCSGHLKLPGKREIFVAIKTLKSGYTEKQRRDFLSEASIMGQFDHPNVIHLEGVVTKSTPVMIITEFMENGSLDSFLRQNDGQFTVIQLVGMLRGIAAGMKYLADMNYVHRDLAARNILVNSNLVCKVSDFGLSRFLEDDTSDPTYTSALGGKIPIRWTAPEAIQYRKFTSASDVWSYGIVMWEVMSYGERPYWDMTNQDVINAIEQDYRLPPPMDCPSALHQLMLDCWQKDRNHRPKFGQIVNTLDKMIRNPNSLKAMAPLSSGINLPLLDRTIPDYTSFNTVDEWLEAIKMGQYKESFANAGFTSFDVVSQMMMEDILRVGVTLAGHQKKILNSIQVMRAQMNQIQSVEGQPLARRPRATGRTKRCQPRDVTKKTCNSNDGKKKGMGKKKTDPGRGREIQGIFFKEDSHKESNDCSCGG", "experiment": "Kinase panel screen", "type": "biochemical", "details": "Compound I and ATP 10 μM"}, "[23]": {"target": "T18, MST2 (Homo sapiens, UniProt Q13188)", "T18 construct": "purchased Upstate USA or Invitrogen (commercial screening service)", "T18 sequence (Q13188 whole entry)": "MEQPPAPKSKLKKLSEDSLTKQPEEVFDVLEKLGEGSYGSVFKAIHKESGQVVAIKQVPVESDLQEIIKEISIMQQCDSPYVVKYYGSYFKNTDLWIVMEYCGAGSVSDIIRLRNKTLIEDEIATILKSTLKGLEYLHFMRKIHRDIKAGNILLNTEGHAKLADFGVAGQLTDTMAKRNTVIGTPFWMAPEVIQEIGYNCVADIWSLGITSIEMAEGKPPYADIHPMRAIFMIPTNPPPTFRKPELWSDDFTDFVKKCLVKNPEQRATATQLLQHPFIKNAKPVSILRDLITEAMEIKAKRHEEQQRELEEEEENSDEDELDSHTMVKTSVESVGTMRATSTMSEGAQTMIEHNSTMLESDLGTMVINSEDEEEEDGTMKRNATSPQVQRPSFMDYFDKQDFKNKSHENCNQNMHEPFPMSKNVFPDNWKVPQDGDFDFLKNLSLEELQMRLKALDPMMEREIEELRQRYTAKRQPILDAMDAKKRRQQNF", "experiment": "Kinase panel screen", "type": "biochemical", "details": "Compound I and ATP 10 μM"}, "[24]": {"target": "T19, IKKa (Homo sapiens, UniProt O15111)", "T19 construct": "purchased Upstate USA or Invitrogen (commercial screening service)", "experiment": "Kinase panel screen", "type": "biochemical", "details": "Compound I and ATP 10 μM"}, "[25]": {"target": "T20, ALK4 (Homo sapiens, UniProt P36896)", "T20 construct": "purchased Upstate USA or Invitrogen (commercial screening service)", "experiment": "Kinase panel screen", "type": "biochemical", "details": "Compound I and ATP 10 μM"}}, "note": "Entries after “also recorded” stand apart in the source; their conditions may differ."}
{"molecule": "Nc1nc(N)c2nc(-c3cccc(O)c3)c(-c3cccc(O)c3)nc2n1", "note": "[Compound I, 6,7-bis-(3-hydroxyphenyl)-pteridine-2,4-diamine]", "values": [{"measurement": "Percent Control, CDK7", "setting": "[1]", "result": 82, "unit": "%"}, {"measurement": "Increase in Paw Volume vs. Controls", "setting": "[2]; Dextran, 5 mg/kg iv 30 min before, 3 hours, mean±SEM N=6, vehicle 148 ± 6", "result": "32 ± 5", "unit": "mm^3"}, {"measurement": "edema and leukocyte infiltration (histology)", "setting": "[2]; dextran, 5 mg/kg pretreatment, three hours", "result": "strongly antagonized; also recorded: blocked"}, {"measurement": "reduction of paw volume", "setting": "[2]; dextran, n=8", "result": 78, "unit": "%"}, {"measurement": "Percent Control, CHK1", "setting": "[3]", "result": 100, "unit": "%"}, {"measurement": "Percent Control, KDR", "setting": "[4]", "result": 62, "unit": "%"}, {"measurement": "VEGF-stimulated ERK phosphorylation", "setting": "[5]", "result": "no influence"}, {"measurement": "Percent Control, Aurora-A", "setting": "[6]", "result": 71, "unit": "%"}, {"measurement": "Percent Control, CDK2 (first entry)", "setting": "[7]", "result": 67, "unit": "%"}, {"measurement": "Percent Control, MAPK1", "setting": "[8]", "result": 97, "unit": "%"}, {"measurement": "Percent Control, CK18", "setting": "[9]", "result": 24, "unit": "%"}, {"measurement": "Percent Control, MST1", "setting": "[10]", "result": 107, "unit": "%"}, {"measurement": "remaining activity at 10 µM", "setting": "[11]", "result": 98, "unit": "%"}, {"measurement": "Percent Control, CDK3", "setting": "[12]", "result": 72, "unit": "%"}, {"measurement": "VEGF signaling culminating in VE-cadherin phosphorylation", "setting": "[13]", "result": "interrupt"}, {"measurement": "Percent Control, FGFR3", "setting": "[14]", "result": 66, "unit": "%"}, {"measurement": "Percent Control, Axl", "setting": "[15]", "result": 76, "unit": "%"}, {"measurement": "Percent Control, cRaf*", "setting": "[16]", "result": 98, "unit": "%"}, {"measurement": "Percent Control, Ron", "setting": "[17]", "result": 71, "unit": "%"}, {"measurement": "Percent Control, Hck", "setting": "[18]", "result": 67, "unit": "%"}, {"measurement": "Percent Control, MKK4 (m)", "setting": "[19]", "result": 57, "unit": "%"}, {"measurement": "Percent Control, EphB4", "setting": "[20]", "result": 68, "unit": "%"}, {"measurement": "Percent Control, EphA4", "setting": "[21]", "result": 119, "unit": "%"}, {"measurement": "Percent Control, EphB2", "setting": "[22]", "result": 56, "unit": "%"}, {"measurement": "Percent Control, MST2", "setting": "[23]", "result": 91, "unit": "%"}, {"measurement": "Percent Control, IKKa", "setting": "[24]", "result": 100, "unit": "%"}, {"measurement": "Percent Control, ALK4", "setting": "[25]", "result": 91, "unit": "%"}]}
